Legend:
293T cells expressing CD = assay: immunopurification of labeled mRNAs with anti-BrdU antibody and RT-PCR, CD-expressing 293T cells; type: cell-based, human
Protocol: FIG. 1a-f. Labeling and purification of RNA by CD expression and 5-FC treatment. FIG. 1a—Schematic diagram showing RNA labeling using CD and 5-FC. FIG. 1b—Chemical reactions steps involved in the labeling of RNA using CD and 5-FC. The dotted arrow indicates the intermediary steps that are not shown. FIG. 1c Relative fold enrichment of mRNA isolated by Flura-tagging. 293T cells expressing CD or unlabeled controls were treated with 5-FC for the indicated times, labeled mRNAs were immunopurified using anti-BrdU antibody, and the levels of labeled mRNAs of the indicated genes relative to corresponding non-immunoprecipitated inputs normalized to immunopurified mRNAs from cells not expressing CD were quantified by RT-PCR. […] FIG. 1d—Schematic diagram of the constructs used for inducible expression of UPRT and/or CD, and the experimental design. Transduced RFP+MDA231 cells were mixed with unlabeled cells, treated with doxycycline for 24 h and then 5-FC for 4-12 h. Cells were analyzed by immunofluorescence or harvested for RNA analysis. FIG. 1e—Flura-tagging in MDA231 cells in vitro. […] The fold enrichment of the indicated representative human genes over mouse housekeeping genes (mHPRT1 and mLDH1) was measured by RT-PCR (n=3±S.E.). […]
Next, we determined whether 5-FU-labeled mRNAs can be specifically and efficiently isolated by immunoprecipitation. […]

[1] = test system: MDA231 cells expressing CD/UPRT; assay: Flura-tagged mRNA immunoprecipitation from MDA231 CD/UPRT cells co-cultured with mouse 4T1 cells, RT-PCR; type: cell-based, human; conditions: 12 h, 100-1000 MDA231 cells to 10^6 4T1 cells
Protocol: FIG. 1a-f. Labeling and purification of RNA by CD expression and 5-FC treatment. FIG. 1a—Schematic diagram showing RNA labeling using CD and 5-FC. FIG. 1b—Chemical reactions steps involved in the labeling of RNA using CD and 5-FC. The dotted arrow indicates the intermediary steps that are not shown. FIG. 1c Relative fold enrichment of mRNA isolated by Flura-tagging. 293T cells expressing CD or unlabeled controls were treated with 5-FC for the indicated times, labeled mRNAs were immunopurified using anti-BrdU antibody, and the levels of labeled mRNAs of the indicated genes relative to corresponding non-immunoprecipitated inputs normalized to immunopurified mRNAs from cells not expressing CD were quantified by RT-PCR. […] Cells were analyzed by immunofluorescence or harvested for RNA analysis. […] The fold enrichment of the indicated representative human genes over mouse housekeeping genes (mHPRT1 and mLDH1) was measured by RT-PCR (n=3±S.E.). […]
Next, we determined whether this system could be used to isolate RNA specifically from cells of interest that were admixed with a large proportion of other cells. […] After 12 h of 5-FC addition, 5-FU-labeled mRNAs were immunoprecipitated, and the proportion of human and mouse mRNA for representative housekeeping genes were determined by reverse transcriptase-polymerase chain reaction (RT-PCR). […]

SMILES: Nc1nc(=O)[nH]cc1F [5-FC, 5-fluorocytosine]
- time for which labeling continued to increase (293T cells expressing CD): up to 24 h
- time after treatment at which labeled mRNAs were detectable (293T cells expressing CD; three representative genes): 2 h
- enrichment of human mRNAs compared to mouse mRNAs [1]: more than 10^5 fold

Source: US20200032249A1, “LABELING, ISOLATION, & ANALYSIS OF RNA FROM RARE CELL POPULATIONS” (priority 2017, published 2020)
